According to the NIST ThermoML archive (doi:10.1007/s10765-010-0766-0):
Where “and” joins values, the source holds several entries; their conditions need not be identical. Equal entries are not always repeated.

Details: Liquid, Pycnometric method

FC(F)C(F)(F)OCC(F)(F)F [2,2,2-trifluoroethyl 1,1,2,2-tetrafluoroethyl ether]
Details	mass density
342.15 K, 16809 kPa	1418.3 kg/m3
342.15 K, 16812 kPa	1418.3 kg/m3
343.15 K, 17505 kPa	1418.1 kg/m3
343.15 K, 17508 kPa	1418.1 kg/m3
344.15 K, 18201 kPa	1418 kg/m3
344.15 K, 18203 kPa	1418 kg/m3
345.15 K, 18896 kPa	1417.8 kg/m3
345.15 K, 18898 kPa	1417.8 kg/m3
346.15 K, 19590 kPa	1417.7 kg/m3
346.15 K, 19592 kPa	1417.7 kg/m3
347.15 K, 20282 kPa	1417.5 kg/m3
347.15 K, 20287 kPa	1417.6 kg/m3
348.15 K, 20974 kPa	1417.4 kg/m3
348.15 K, 20978 kPa	1417.4 kg/m3
349.15 K, 21666 kPa	1417.3 kg/m3
349.15 K, 21671 kPa	1417.3 kg/m3
350.15 K, 22357 kPa	1417.1 kg/m3
350.15 K, 22360 kPa	1417.2 kg/m3
351.15 K, 23047 kPa	1417 kg/m3
351.15 K, 23050 kPa	1417 kg/m3
352.15 K, 23735 kPa	1416.9 kg/m3
352.15 K, 23739 kPa	1416.9 kg/m3
353.15 K, 24423 kPa	1416.8 kg/m3
353.15 K, 24426 kPa	1416.8 kg/m3
354.15 K, 25110 kPa	1416.6 kg/m3
354.15 K, 25114 kPa	1416.7 kg/m3
355.15 K, 25797 kPa	1416.5 kg/m3
355.15 K, 25801 kPa	1416.5 kg/m3
356.15 K, 26482 kPa	1416.4 kg/m3
356.15 K, 26486 kPa	1416.4 kg/m3
357.15 K, 27166 kPa	1416.3 kg/m3
357.15 K, 27171 kPa	1416.3 kg/m3
358.15 K, 27851 kPa	1416.2 kg/m3
358.15 K, 27855 kPa	1416.2 kg/m3
359.15 K, 5632 kPa	1334.4 kg/m3
359.15 K, 5637 kPa	1334.4 kg/m3
359.15 K, 28535 kPa	1416.1 kg/m3
359.15 K, 28538 kPa	1416.1 kg/m3
360.15 K, 6174 kPa	1334.2 kg/m3
360.15 K, 6180 kPa	1334.2 kg/m3
360.15 K, 29217 kPa	1415.9 kg/m3
360.15 K, 29220 kPa	1416 kg/m3
361.15 K, 6718 kPa	1334.1 kg/m3
361.15 K, 6724 kPa	1334.1 kg/m3
361.15 K, 29899 kPa	1415.8 kg/m3
361.15 K, 29902 kPa	1415.9 kg/m3
362.15 K, 7261 kPa	1333.9 kg/m3
362.15 K, 7266 kPa	1333.9 kg/m3
363.15 K, 7803 kPa	1333.8 kg/m3
363.15 K, 7809 kPa	1333.8 kg/m3
364.15 K, 8346 kPa	1333.6 kg/m3
364.15 K, 8350 kPa	1333.6 kg/m3
365.15 K, 8888 kPa	1333.5 kg/m3
365.15 K, 8892 kPa	1333.5 kg/m3
366.15 K, 9430 kPa	1333.3 kg/m3
366.15 K, 9434 kPa	1333.4 kg/m3
367.15 K, 9971 kPa	1333.2 kg/m3
367.15 K, 9976 kPa	1333.2 kg/m3
368.15 K, 10512 kPa	1333.1 kg/m3
368.15 K, 10516 kPa	1333.1 kg/m3
369.15 K, 11053 kPa	1332.9 kg/m3
369.15 K, 11057 kPa	1332.9 kg/m3
370.15 K, 11593 kPa	1332.8 kg/m3
370.15 K, 11598 kPa	1332.8 kg/m3
371.15 K, 12133 kPa	1332.7 kg/m3
371.15 K, 12137 kPa	1332.7 kg/m3
372.15 K, 12673 kPa	1332.5 kg/m3
372.15 K, 12677 kPa	1332.6 kg/m3
373.15 K, 13212 kPa	1332.4 kg/m3
373.15 K, 13216 kPa	1332.4 kg/m3
374.15 K, 13752 kPa	1332.3 kg/m3
374.15 K, 13756 kPa	1332.3 kg/m3
375.15 K, 14290 kPa	1332.2 kg/m3
375.15 K, 14294 kPa	1332.2 kg/m3
376.15 K, 14828 kPa	1332 kg/m3
376.15 K, 14831 kPa	1332 kg/m3
377.15 K, 15366 kPa	1331.9 kg/m3
377.15 K, 15369 kPa	1331.9 kg/m3
378.15 K, 15904 kPa	1331.8 kg/m3
378.15 K, 15906 kPa	1331.8 kg/m3
379.15 K, 16441 kPa	1331.7 kg/m3
379.15 K, 16443 kPa	1331.7 kg/m3
380.15 K, 16977 kPa	1331.5 kg/m3
380.15 K, 16980 kPa	1331.5 kg/m3
381.15 K, 17514 kPa	1331.4 kg/m3
381.15 K, 17515 kPa	1331.4 kg/m3
382.15 K, 18050 kPa	1331.3 kg/m3
382.15 K, 18051 kPa	1331.3 kg/m3
383.15 K, 18585 kPa	1331.2 kg/m3
383.15 K, 18586 kPa	1331.2 kg/m3
384.15 K, 19120 kPa	1331.1 kg/m3
384.15 K, 19121 kPa	1331.1 kg/m3
385.15 K, 19655 kPa	1330.9 kg/m3
385.15 K, 19656 kPa	1330.9 kg/m3
386.15 K, 20189 kPa	1330.8 kg/m3
387.15 K, 20723 kPa	1330.7 kg/m3
388.15 K, 21256 kPa	1330.6 kg/m3
389.15 K, 21789 kPa	1330.5 kg/m3
390.15 K, 22322 kPa	1330.4 kg/m3
391.15 K, 22854 kPa	1330.3 kg/m3
391.15 K, 22855 kPa	1330.3 kg/m3
392.15 K, 23385 kPa	1330.2 kg/m3
392.15 K, 23386 kPa	1330.2 kg/m3
393.15 K, 23917 kPa	1330 kg/m3 and 1330.1 kg/m3
394.15 K, 24448 kPa	1329.9 kg/m3
395.15 K, 24978 kPa	1329.8 kg/m3
396.15 K, 25507 kPa	1329.7 kg/m3
396.15 K, 25508 kPa	1329.7 kg/m3
397.15 K, 26037 kPa	1329.6 kg/m3
397.15 K, 26038 kPa	1329.6 kg/m3
398.15 K, 26566 kPa	1329.5 kg/m3
398.15 K, 26567 kPa	1329.5 kg/m3
399.15 K, 27094 kPa	1329.4 kg/m3
399.15 K, 27096 kPa	1329.4 kg/m3
400.15 K, 27622 kPa	1329.3 kg/m3
400.15 K, 27623 kPa	1329.3 kg/m3
401.15 K, 28150 kPa	1329.2 kg/m3
401.15 K, 28151 kPa	1329.2 kg/m3
402.15 K, 28677 kPa	1329.1 kg/m3
402.15 K, 28678 kPa	1329.2 kg/m3
403.15 K, 29204 kPa	1329 kg/m3
403.15 K, 29205 kPa	1329.1 kg/m3
404.15 K, 29730 kPa	1329 kg/m3
404.15 K, 29732 kPa	1329 kg/m3
